Test results as given in ChEMBL document CHEMBL1201862, “PubChem BioAssay data set” (2004).
Each block holds one compound with its values, some of them ahead of it. Active and inactive are the calls of the source.

Experiments:
[1] = target: T1, High affinity choline transporter 1 (Homo sapiens, UniProt Q9GZV3); test: CHT inhibitors reducing choline uptake, dose response, orthogonal assay for CHT inhibitor project, cell-based, 3H-choline uptake, radioactive, HEK293 CHT LV-AA (AID 651756); type: functional
T1 sequence (Q9GZV3 whole entry): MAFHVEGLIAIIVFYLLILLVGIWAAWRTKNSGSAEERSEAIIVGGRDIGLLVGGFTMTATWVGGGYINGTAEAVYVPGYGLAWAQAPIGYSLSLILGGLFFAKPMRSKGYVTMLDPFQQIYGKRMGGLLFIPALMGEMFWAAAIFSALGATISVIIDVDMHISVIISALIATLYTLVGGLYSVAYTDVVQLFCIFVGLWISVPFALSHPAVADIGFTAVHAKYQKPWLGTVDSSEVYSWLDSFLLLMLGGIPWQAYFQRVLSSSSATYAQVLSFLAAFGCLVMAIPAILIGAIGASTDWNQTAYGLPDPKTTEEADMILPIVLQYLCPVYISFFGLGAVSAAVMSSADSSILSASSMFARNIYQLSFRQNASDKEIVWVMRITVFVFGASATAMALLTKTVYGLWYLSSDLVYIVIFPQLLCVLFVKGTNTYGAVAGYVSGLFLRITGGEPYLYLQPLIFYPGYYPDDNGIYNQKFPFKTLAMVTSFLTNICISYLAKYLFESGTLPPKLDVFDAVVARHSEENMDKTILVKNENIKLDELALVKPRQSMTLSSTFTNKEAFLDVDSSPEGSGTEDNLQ

[2] = target: Mitochondrial peptide methionine sulfoxide reductase (Bos taurus, UniProt P54149); test: Absorbance-based biochemical high throughput dose response assay for activators of Methionine sulfoxide reductase A (MsrA).; type: functional
Sequence of Mitochondrial peptide methionine sulfoxide reductase (P54149 whole entry): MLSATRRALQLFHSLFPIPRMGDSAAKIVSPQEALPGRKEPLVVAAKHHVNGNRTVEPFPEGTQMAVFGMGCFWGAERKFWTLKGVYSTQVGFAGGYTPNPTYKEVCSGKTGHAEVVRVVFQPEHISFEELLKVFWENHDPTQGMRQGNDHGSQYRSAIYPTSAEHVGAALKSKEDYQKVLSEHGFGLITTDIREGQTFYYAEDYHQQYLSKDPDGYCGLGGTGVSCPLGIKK

[3] = target: T2, Rac GTPase-activating protein 1 (Homo sapiens, UniProt Q9H0H5); test: MgcRacGAP GTPase-activating activity inhibitors, confirmation, biochemical, ADP Hunter fluorescence, primary and confirmatory (AID 624330); type: functional
T2 sequence (Q9H0H5 whole entry): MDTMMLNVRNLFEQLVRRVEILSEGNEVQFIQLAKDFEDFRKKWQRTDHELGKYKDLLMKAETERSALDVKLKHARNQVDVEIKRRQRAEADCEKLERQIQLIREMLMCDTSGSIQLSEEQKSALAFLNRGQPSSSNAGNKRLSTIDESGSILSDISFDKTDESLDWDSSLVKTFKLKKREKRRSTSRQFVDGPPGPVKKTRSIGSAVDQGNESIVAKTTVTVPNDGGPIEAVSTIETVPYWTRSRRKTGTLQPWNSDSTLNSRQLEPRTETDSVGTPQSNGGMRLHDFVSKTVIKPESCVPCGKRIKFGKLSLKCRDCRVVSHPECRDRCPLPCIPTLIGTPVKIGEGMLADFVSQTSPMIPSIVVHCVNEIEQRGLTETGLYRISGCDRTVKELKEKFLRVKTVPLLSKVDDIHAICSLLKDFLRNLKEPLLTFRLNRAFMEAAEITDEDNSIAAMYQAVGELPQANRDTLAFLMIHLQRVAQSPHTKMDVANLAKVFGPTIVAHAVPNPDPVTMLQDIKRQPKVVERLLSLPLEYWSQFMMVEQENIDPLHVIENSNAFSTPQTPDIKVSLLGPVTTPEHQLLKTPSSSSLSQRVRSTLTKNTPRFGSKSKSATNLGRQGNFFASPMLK

[4] = HeLa cell cytotoxicity, dose response, cytotoxicity control for MgcRacGAP inhibitor project (AID 624300); type: functional
[5] = target: T3, Tyrosyl-DNA phosphodiesterase 2 (Homo sapiens, UniProt O95551); test: human TDP2 enzyme inhibitors, dose response, biochemical, epi absorbance, IC50 (AID 743297)
T3 sequence (O95551 whole entry): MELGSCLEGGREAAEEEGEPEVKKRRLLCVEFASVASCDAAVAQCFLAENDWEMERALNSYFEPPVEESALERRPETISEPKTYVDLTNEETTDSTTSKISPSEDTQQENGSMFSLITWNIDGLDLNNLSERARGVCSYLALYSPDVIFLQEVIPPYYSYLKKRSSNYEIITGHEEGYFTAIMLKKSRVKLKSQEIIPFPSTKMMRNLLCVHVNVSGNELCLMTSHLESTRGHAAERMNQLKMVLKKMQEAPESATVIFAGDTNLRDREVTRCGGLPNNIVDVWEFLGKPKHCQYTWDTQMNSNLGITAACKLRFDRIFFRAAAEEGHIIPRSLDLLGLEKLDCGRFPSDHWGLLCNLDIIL

[6] = target: Potassium voltage-gated channel subfamily KQT member 2 (Rattus norvegicus, UniProt O88943); test: KCNQ2 potassium channel inhibitors, dose response, cell-based, automated electrophysiology, set II, rat KCNQ2 (AID 588637); type: functional
Sequence of Potassium voltage-gated channel subfamily KQT member 2 (O88943 whole entry): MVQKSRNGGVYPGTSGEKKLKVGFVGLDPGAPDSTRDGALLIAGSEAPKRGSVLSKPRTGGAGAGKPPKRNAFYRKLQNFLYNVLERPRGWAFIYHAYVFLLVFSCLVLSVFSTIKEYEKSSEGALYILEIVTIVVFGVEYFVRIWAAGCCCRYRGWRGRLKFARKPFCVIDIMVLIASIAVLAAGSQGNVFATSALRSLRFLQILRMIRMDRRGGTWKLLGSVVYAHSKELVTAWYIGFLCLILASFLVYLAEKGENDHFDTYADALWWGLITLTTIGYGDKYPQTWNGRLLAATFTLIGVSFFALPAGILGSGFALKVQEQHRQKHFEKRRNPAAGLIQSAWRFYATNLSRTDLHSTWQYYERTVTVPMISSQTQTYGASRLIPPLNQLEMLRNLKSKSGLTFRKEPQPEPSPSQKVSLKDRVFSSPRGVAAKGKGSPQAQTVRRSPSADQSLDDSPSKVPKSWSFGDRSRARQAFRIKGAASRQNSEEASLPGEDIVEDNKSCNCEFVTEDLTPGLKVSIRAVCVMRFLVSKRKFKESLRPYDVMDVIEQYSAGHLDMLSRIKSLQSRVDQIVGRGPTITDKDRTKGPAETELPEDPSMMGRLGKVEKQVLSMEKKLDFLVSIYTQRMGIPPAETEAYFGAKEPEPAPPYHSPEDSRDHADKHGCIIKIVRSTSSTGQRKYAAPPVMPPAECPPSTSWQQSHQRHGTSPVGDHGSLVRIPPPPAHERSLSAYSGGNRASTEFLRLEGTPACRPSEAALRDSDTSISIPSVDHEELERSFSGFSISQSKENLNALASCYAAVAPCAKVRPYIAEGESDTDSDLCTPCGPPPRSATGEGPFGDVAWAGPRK

[7] = target: ADP-ribosylation factor GTPase-activating protein 1 (Rattus norvegicus, UniProt Q62848); test: Fluorescence polarization-based biochemical high throughput dose response screening assay to identify inhibitors of ADP-ribosylation factor GTPase activating protein 1 (ARFGAP1).; type: functional
Sequence of ADP-ribosylation factor GTPase-activating protein 1 (Q62848 whole entry, the tested form may be a part): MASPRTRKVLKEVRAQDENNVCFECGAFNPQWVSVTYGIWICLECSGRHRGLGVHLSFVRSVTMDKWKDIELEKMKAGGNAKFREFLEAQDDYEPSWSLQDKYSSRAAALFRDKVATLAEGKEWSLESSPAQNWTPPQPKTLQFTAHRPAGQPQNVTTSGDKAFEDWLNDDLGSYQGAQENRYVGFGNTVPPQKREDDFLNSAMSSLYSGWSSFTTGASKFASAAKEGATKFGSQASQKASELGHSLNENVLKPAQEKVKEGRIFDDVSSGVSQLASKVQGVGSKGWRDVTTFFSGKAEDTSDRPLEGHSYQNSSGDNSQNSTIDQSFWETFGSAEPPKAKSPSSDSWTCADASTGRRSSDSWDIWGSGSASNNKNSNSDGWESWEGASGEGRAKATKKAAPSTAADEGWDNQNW

[8] = target: Arf-GAP with SH3 domain, ANK repeat and PH domain-containing protein 1 (Homo sapiens, UniProt Q9ULH1); type: functional;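 also: biochemical fluorescence polarization dose–response screen measuring inhibition of ASAP1; ASAP1 GAP domain stimulating GTP hydrolysis by truncated human ARF1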
Sequence of Arf-GAP with SH3 domain, ANK repeat and PH domain-containing protein 1 (Q9ULH1 whole entry, the tested form may be a part): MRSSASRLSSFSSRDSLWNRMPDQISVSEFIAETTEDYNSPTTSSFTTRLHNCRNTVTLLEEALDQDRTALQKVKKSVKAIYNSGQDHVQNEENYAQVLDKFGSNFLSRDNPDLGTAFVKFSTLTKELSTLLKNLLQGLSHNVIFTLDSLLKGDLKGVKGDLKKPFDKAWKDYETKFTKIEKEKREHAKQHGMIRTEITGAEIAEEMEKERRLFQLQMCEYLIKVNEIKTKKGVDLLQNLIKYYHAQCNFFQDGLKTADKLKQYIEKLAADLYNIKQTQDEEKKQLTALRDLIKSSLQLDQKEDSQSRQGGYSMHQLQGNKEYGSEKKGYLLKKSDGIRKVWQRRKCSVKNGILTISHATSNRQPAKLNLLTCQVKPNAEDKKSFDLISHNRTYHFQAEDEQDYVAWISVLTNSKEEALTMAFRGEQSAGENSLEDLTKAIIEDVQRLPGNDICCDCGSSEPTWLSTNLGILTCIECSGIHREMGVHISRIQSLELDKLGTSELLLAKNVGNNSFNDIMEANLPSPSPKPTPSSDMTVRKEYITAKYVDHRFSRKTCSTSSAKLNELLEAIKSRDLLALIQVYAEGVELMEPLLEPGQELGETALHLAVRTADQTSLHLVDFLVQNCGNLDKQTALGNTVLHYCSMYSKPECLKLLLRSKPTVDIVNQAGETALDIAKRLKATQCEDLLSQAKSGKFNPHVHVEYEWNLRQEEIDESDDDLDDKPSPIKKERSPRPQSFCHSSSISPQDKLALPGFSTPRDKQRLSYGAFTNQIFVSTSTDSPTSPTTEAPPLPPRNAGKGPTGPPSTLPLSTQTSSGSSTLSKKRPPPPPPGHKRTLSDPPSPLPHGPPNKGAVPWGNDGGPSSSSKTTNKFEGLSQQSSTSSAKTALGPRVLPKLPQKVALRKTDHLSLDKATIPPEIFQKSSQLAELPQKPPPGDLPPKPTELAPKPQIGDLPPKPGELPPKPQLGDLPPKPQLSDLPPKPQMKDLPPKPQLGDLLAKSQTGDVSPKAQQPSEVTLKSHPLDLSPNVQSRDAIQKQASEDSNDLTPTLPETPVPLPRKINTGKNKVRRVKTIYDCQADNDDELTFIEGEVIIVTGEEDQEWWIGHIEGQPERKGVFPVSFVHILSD

IC50 [1]: 3.85 µM (active)
SMILES: O=C(Nc1ccc(S(=O)(=O)Nc2ccccn2)cc1)c1ccc([N+](=O)[O-])cc1Cl

EC50 [2]: > 104 µM (inactive)
IC50 [3]: 58.9 µM (active)
IC50 [5]: > 128 µM (inactive)
SMILES: C[n+]1c(-c2ccccc2)cc2c(=Cc3ccccc3)c3ccccc3n21
CC50 [4]: 26.3 µM (active)

IC50 [6]: 2.96 µM (active)
SMILES: CCN(CC)S(=O)(=O)c1ccc(N2CCOCC2)c(NC(=O)COc2ccccc2)c1

IC50 [7]: 36.8 µM (inactive)
IC50 [8]: 18.3 µM (inactive)
SMILES: CCCCOc1cccc2c(=O)n(CC(=O)Nc3ccc4c(c3)OCCO4)ccc12
